Consider 1 substance from patent publication US9551711B2, “Compositions and methods for detecting nitration of PKG-1α and methods of use thereof” (Augusta University Research Institute, Inc., priority 2013, dated 2017).

The target in test [1] is T1, PKG-1α (Homo sapiens, UniProt Q13976, Y247F).
T1 sequence (Q13976 2-671 Y247F): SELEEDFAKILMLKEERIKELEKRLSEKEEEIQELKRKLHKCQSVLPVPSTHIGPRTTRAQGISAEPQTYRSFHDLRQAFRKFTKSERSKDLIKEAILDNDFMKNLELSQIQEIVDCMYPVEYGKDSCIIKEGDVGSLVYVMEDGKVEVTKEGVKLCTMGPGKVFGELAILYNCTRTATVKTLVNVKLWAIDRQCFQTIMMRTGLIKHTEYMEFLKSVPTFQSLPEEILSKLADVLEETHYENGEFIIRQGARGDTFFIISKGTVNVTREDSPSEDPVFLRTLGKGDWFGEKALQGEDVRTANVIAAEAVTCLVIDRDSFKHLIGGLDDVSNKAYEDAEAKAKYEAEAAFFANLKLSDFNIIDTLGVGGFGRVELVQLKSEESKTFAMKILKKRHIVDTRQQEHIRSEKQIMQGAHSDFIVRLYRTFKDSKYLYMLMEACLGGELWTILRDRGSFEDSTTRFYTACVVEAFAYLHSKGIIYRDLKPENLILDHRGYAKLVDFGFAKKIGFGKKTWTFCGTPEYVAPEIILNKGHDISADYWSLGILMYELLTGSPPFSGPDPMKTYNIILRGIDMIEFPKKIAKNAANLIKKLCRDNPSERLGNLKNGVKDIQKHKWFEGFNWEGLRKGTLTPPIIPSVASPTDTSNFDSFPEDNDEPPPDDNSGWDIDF
The test can be described thus: PKG catalytic activity, Michaelis-Menten kinetics for cGMP. Type of test: biochemical. The conditions noted are these: Y247F mutant upon SIN-1 treatment. The arrangement: made in house; host or cells: HEK-293T. The protocol:
Total PKG activity was determined using a non-radioactive immunoassay in cell lysates, according to the manufacturer's directions. Briefly, protein samples were diluted in kinase reaction buffer containing Mg^2+ and ATP (125 μM) in the presence or absence of 8-Br cGMP (10 μM) and incubated in a 96 well plate pre-coated with a PKG substrate containing threonine residues phosphorylated by PKG.
After incubation for 30 min at 30° C. to allow the phosphorylation of the bound substrate, an HRP conjugated anti-phosphothreonine specific antibody was added to convert a chromogenic substrate to a colorimetric substrate that was subsequently read spectrophotometrically at 450 nm. The change in absorbance reflected the relative activity of PKG in the sample. The results were reported as pmols of phosphate incorporated into the GST-G substrate fusion protein by active PKG in the sample in the presence or absence of cGMP (10 μM) per minute at 30° C. per μg of protein (pmol/min/μg). […] The kinetic constants were determined using nonlinear regression (curve fit) analysis (GraphPad Prism Software Inc.).
To determine the Michaelis-Menten constant (Km) for cGMP, the kinase assay was performed, as mentioned above; however, the cGMP concentration was titrated from 0-10 μM, while the ATP concentration remained constant at 125 μM.

The test system of test [2] is pulmonary artery smooth muscle cells (PASMC). The test can be described thus: PASMC cellular metabolism (alamarBlue assay). The format is cell-based, lamb. Particulars: WT-PKG-1α transfected PASMC; SIN-1 500 μM, 48 h. The protocol: This was determined via the alamarBlue assay (AbD Serotec, Oxford, UK). The assay is based on the reducing ability of metabolically active cells to convert the active reagent, resazurin, into a fluorescent and colorimetric indicator, resorufin. When added to cell cultures, the oxidized, resazurin enters the cytosol and is converted to the reduced, resorufin in the mitochondria by accepting electrons from NADH, NADPH, FADH2, FMNH2, as well as from the cytochromes. The non-toxic and cell permeable nature of alamarBlue permits the long-term exposure of cells. PASMC were grown on a 10 cm dish to 75% confluence, transfected with WT-PKG-1α or Y247F-PKG-1α cDNA, and incubated at 37° C. for 20 h. The cells were trypsinized and seeded onto a 24-well plate at a density of 20,000 cells per well and grown for an additional 4 h in serum and phenol free DMEM growth medium containing 1% FBS and antibiotics. The cells were then treated with or without SIN-1 (500 μM, 48 h) in the presence of 10% well volume of alamarBlue dye. The color change of the dye was determined at an excitation wavelength of 560 nm and an emission wavelength of 590 nm in a Fluoroskan Ascent plate reader. […] Cellular metabolism was expressed as follows: […]
(In general: Alamar Blue is a resazurin reagent that responds to reducing activity.)

Consider “3-morpholinosydnonimine N-ethylcarbamide [SIN-1]”, for which the “change of Michaelis-Menten constant (Km) for cGMP” value in test [1] is reported as “no significant change”. In addition, in test [2], the metabolism result is “stimulated”.
